Assay results as given in patent US10736883B2, “Triazole furan compounds as agonists of the APJ receptor” (AMGEN INC., priority 2016, dated 2020).

Biological target: APJ receptor (Homo sapiens (Human), UniProt P35414)
Assay: [35S]GTPγS binding assay on membranes from CHO cells stably expressing human APJ receptor
Assay type: biochemical
Settings: membranes of CHO cells stably expressing human APJ receptor, means of several independent experiments, read-out: Activity hAPJ SPA EC50 IP
Summary of the method: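 Membranes from CHO cells stably expressing human APJ were incubated with 0.2 nM [35S]GTPγS and ligands for 90 min at RT in 20 mM HEPES pH 7.5, 5 mM MgCl2, 200 mM NaCl, 3 μM GDP, 0.1% BSA with WGA PS beads. Nonspecific binding was set with 100 μM GTPγS. EC50 came from non-linear regression.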

Chain of APJ receptor (P35414 whole entry): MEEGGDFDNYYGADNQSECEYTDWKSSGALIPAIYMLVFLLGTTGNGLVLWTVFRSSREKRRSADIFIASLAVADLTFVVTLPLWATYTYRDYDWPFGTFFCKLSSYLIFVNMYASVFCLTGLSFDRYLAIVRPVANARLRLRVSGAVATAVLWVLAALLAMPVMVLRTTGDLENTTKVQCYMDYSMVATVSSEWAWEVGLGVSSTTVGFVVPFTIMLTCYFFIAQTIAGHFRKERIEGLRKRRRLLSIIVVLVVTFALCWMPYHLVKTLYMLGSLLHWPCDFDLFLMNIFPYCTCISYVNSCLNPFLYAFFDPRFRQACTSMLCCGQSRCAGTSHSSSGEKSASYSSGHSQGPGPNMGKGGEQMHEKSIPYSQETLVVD

SMILES | EC50
COc1cccc(OC)c1-n1c(NS(=O)(=O)[C@@H](C)[C@H](O)c2ccc(C#N)cn2)nnc1-c1ccc(C)o1 (single isomer, unassigned) [Example 40.0, (1R,2S)-1-(5-cyano-2-pyridinyl)-N-(4-(2,6-dimethoxyphenyl)-5-(5-methyl-2-furanyl)-4H-1,2,4-triazol-3-yl)-1-hydroxy-2-propanesulfonamide or (1S,2R)-1-(5-cyano-2-pyridinyl)-N-(4-(2,6-dimethoxyphenyl)-5-(5-methyl-2-furanyl)-4H-1,2,4-triazol-3-yl)-1-hydroxy-2-propanesulfonamide] | 11000 pM
COc1cccc(OC)c1-n1c(NS(=O)(=O)[C@H](C)Cc2ccc(C)nn2)nnc1-c1ccco1 (single isomer, unassigned) [Example 42.0, (2R)—N-(4-(2,6-dimethoxyphenyl)-5-(2-furanyl)-4H-1,2,4-triazol-3-yl)-1-(6-methyl-3-pyridazinyl)-2-propanesulfonamide or (2S)—N-(4-(2,6-dimethoxyphenyl)-5-(2-furanyl)-4H-1,2,4-triazol-3-yl)-1-(6-methyl-3-pyridazinyl)-2-propanesulfonamide] | 12000 pM
COc1cccc(OC)c1-n1c(NS(=O)(=O)[C@H](C)Cc2ccc(C)nn2)nnc1-c1ccc(C)o1 (single isomer, unassigned) [Example 43.0, (2R)—N-(4-(2,6-dimethoxyphenyl)-5-(5-methyl-2-furanyl)-4H-1,2,4-triazol-3-yl)-1-(6-methyl-3-pyridazinyl)-2-propanesulfonamide or (2S)—N-(4-(2,6-dimethoxyphenyl)-5-(5-methyl-2-furanyl)-4H-1,2,4-triazol-3-yl)-1-(6-methyl-3-pyridazinyl)-2-propanesulfonamide] | 25000 pM
COc1cccc(OC)c1-n1c(NS(=O)(=O)[C@H](C)Cc2ccncn2)nnc1-c1ccco1 (single isomer, unassigned) [Example 44.0, (2R)—N-(4-(2,6-dimethoxyphenyl)-5-(2-furanyl)-4H-1,2,4-triazol-3-yl)-1-(4-pyrimidinyl)-2-propanesulfonamide or (2S)—N-(4-(2,6-dimethoxyphenyl)-5-(2-furanyl)-4H-1,2,4-triazol-3-yl)-1-(4-pyrimidinyl)-2-propanesulfonamide] | 44000 pM
COc1cccc(OC)c1-n1c(NS(=O)(=O)[C@H](C)Cc2cncnc2)nnc1-c1ccco1 (single isomer, unassigned) [Example 45.0, (2R)—N-(4-(2,6-dimethoxyphenyl)-5-(2-furanyl)-4H-1,2,4-triazol-3-yl)-1-(5-pyrimidinyl)-2-propanesulfonamide or (2S)—N-(4-(2,6-dimethoxyphenyl)-5-(2-furanyl)-4H-1,2,4-triazol-3-yl)-1-(5-pyrimidinyl)-2-propanesulfonamide] | 72000 pM
COc1cccc(OC)c1-n1c(NS(=O)(=O)[C@H](C)Cc2ccncn2)nnc1-c1ccco1 (single isomer, unassigned) [Example 46.0, (2R)—N-(4-(2,6-dimethoxyphenyl)-5-(2-furanyl)-4H-1,2,4-triazol-3-yl)-1-(4-pyrimidinyl)-2-propanesulfonamide or (2S)—N-(4-(2,6-dimethoxyphenyl)-5-(2-furanyl)-4H-1,2,4-triazol-3-yl)-1-(4-pyrimidinyl)-2-propanesulfonamide] | 300000 pM
COc1cccc(OC)c1-n1c(NS(=O)(=O)[C@@H](C)[C@@H](O)c2coc(C)n2)nnc1-c1ccc(C)o1 (single isomer, unassigned) [Example 55.0, (1S,2S)—N-(4-(2,6-dimethoxyphenyl)-5-(5-methyl-2-furanyl)-4H-1,2,4-triazol-3-yl)-1-hydroxy-1-(2-methyl-1,3-oxazol-4-yl)-2-propanesulfonamide or (1R,2R)—N-(4-(2,6-dimethoxyphenyl)-5-(5-methyl-2-furanyl)-4H-1,2,4-triazol-3-yl)-1-hydroxy-1-(2-methyl-1,3-oxazol-4-yl)-2-propanesulfonamide] | 28000 pM
COc1cccc(OC)c1-n1c(NS(=O)(=O)[C@@H](C)[C@@H](O)c2ccc(F)cn2)nnc1-c1ccc(C)o1 (single isomer, unassigned) [Example 57.0] | 110 pM
COc1cccc(OC)c1-n1c(NS(=O)(=O)C[C@H](O)c2ccc(C#N)cn2)nnc1-c1ccc(C)o1 (single isomer, unassigned) [Example 58.0, (2R)-2-(5-cyano-2-pyridinyl)-N-(4-(2,6-dimethoxyphenyl)-5-(5-methyl-2-furanyl)-4H-1,2,4-triazol-3-yl)-2-hydroxyethanesulfonamide or (2S)-2-(5-cyano-2-pyridinyl)-N-(4-(2,6-dimethoxyphenyl)-5-(5-methyl-2-furanyl)-4H-1,2,4-triazol-3-yl)-2-hydroxyethanesulfonamide] | 130 pM
COc1cccc(OC)c1-n1c(NS(=O)(=O)[C@@H](C)[C@@H](O)c2ccc(F)cn2)nnc1-c1ccc(C)o1 (single isomer, unassigned) [Example 59.0] | 160 pM
COc1cccc(OC)c1-n1c(NS(=O)(=O)[C@@H](C)[C@H](O)c2ccc(C#N)cc2F)nnc1-c1ccc(C)o1 (single isomer, unassigned) [Example 61.0] | 200 pM
COc1cccc(OC)c1-n1c(NS(=O)(=O)[C@@H](CCO)[C@H](C)c2ncc(C)cn2)nnc1-c1ccc(C)o1 (single isomer, unassigned) [Example 62.0] | 220 pM
COc1cccc(OC)c1-n1c(NS(=O)(=O)[C@@H](C)[C@@H](O)c2ccc(C)cn2)nnc1-c1ccc(C)o1 (single isomer, unassigned) [Example 63.0] | 240 pM
COc1cccc(OC)c1-n1c(NS(=O)(=O)[C@H](C)[C@@H](O)c2ccc(C)cn2)nnc1-c1ccc(C)o1 (single isomer, unassigned) [Example 65.0] | 310 pM
COc1cccc(OC)c1-n1c(NS(=O)(=O)C[C@H](O)c2ccc(C#N)cn2)nnc1-c1ccc(C)o1 (single isomer, unassigned) [Example 66.0, (2R)-2-(5-Cyano-2-pyridinyl)-N-(4-(2,6-dimethoxyphenyl)-5-(5-methyl-2-furanyl)-4H-1,2,4-triazol-3-yl)-2-hydroxyethanesulfonamide or (2S)-2-(5-cyano-2-pyridinyl)-N-(4-(2,6-dimethoxyphenyl)-5-(5-methyl-2-furanyl)-4H-1,2,4-triazol-3-yl)-2-hydroxyethanesulfonamide] | 320 pM
COCC[C@@H]([C@H](C)c1ncc(F)cn1)S(=O)(=O)Nc1nnc(-c2ccc(C)o2)n1-c1c(OC)cccc1OC (single isomer, unassigned) [Example 67.0] | 360 pM
COc1cccc(OC)c1-n1c(NS(=O)(=O)[C@@H](C)[C@H](O)c2ncc(C#N)cc2F)nnc1-c1ccc(C)o1 (single isomer, unassigned) [Example 68.0] | 370 pM
COCC[C@@H](Cc1ncc(C)cn1)S(=O)(=O)Nc1nnc(-c2ccc(C)o2)n1-c1c(OC)cccc1OC (single isomer, unassigned) [Example 71.0, (2R)—N-(4-(2,6-Dimethoxyphenyl)-5-(5-methyl-2-furanyl)-4H-1,2,4-triazol-3-yl)-4-methoxy-1-(5-methyl-2-pyrimidinyl)-2-butanesulfonamide or (2S)—N-(4-(2,6-dimethoxyphenyl)-5-(5-methyl-2-furanyl)-4H-1,2,4-triazol-3-yl)-4-methoxy-1-(5-methyl-2-pyrimidinyl)-2-butanesulfonamide] | 470 pM
COC[C@@H](Cc1ncc(F)cn1)S(=O)(=O)Nc1nnc(-c2ccc(C)o2)n1-c1c(OC)cccc1OC (single isomer, unassigned) [Example 72.0, (2R)—N-(4-(2,6-Dimethoxyphenyl)-5-(5-methyl-2-furanyl)-4H-1,2,4-triazol-3-yl)-1-(5-fluoro-2-pyrimidinyl)-3-methoxy-2-propanesulfonamide or (2S)—N-(4-(2,6-dimethoxyphenyl)-5-(5-methyl-2-furanyl)-4H-1,2,4-triazol-3-yl)-1-(5-fluoro-2-pyrimidinyl)-3-methoxy-2-propanesulfonamide] | 480 pM
COc1cccc(OC)c1-n1c(NS(=O)(=O)[C@H](C)[C@H](O)c2ccc(F)cc2CO)nnc1-c1ccc(C)o1 (single isomer, unassigned) [Example 73.0] | 490 pM
COC[C@@H](Cc1ncc(F)cn1)S(=O)(=O)Nc1nnc(-c2ccc(C)o2)n1-c1c(OC)cccc1OC (single isomer, unassigned) [Example 78.0, (2R)—N-(4-(2,6-Dimethoxyphenyl)-5-(5-methyl-2-furanyl)-4H-1,2,4-triazol-3-yl)-1-(5-fluoro-2-pyrimidinyl)-3-methoxy-2-propanesulfonamide or (2S)—N-(4-(2,6-dimethoxyphenyl)-5-(5-methyl-2-furanyl)-4H-1,2,4-triazol-3-yl)-1-(5-fluoro-2-pyrimidinyl)-3-methoxy-2-propanesulfonamide] | 770 pM
COc1cccc(OC)c1-n1c(NS(=O)(=O)[C@@H](C)[C@@H](O)c2ccc(F)cn2)nnc1-c1ccc(C)o1 (single isomer, unassigned) [Example 79.0] | 980 pM
COc1cccc(OC)c1-n1c(NS(=O)(=O)[C@@H](C)[C@H](O)c2ccc(F)c(C#N)c2)nnc1-c1ccc(C)o1 (single isomer, unassigned) [Example 81.0] | 1100 pM
COc1cccc(OC)c1-n1c(NS(=O)(=O)[C@H](C)[C@H](O)c2ccc(C#N)c(C)n2)nnc1-c1ccc(C)o1 (single isomer, unassigned) [Example 86.0] | 230 pM
COc1cccc(OC)c1-n1c(NS(=O)(=O)[C@H](C)Cc2ncc(F)cn2)nnc1-c1cc(C)c(C)o1 (single isomer, unassigned) [Example 89.0, (R)—N-(4-(2,6-Dimethoxyphenyl)-5-(4,5-dimethylfuran-2-yl)-4H-1,2,4-triazol-3-yl)-1-(5-fluoropyrimidin-2-yl)propane-2-sulfonamide or (S)—N-(4-(2,6-dimethoxyphenyl)-5-(4,5-dimethylfuran-2-yl)-4H-1,2,4-triazol-3-yl)-1-(5-fluoropyrimidin-2-yl)propane-2-sulfonamide] | 1900 pM
